Experiments:
[1] = tested on: armyworm (Spodoptera frugiperda); assay: Spodoptera frugiperda test (SPODFR spray treatment), Example 15; assay type: in vivo; conditions: maize leaf discs sprayed, after 7 days
Procedure: Spodoptera frugiperda Test (SPODFR Spray Treatment)
• Solvent: 78.0 parts by weight of acetone • 1.5 parts by weight of dimethylformamide • Emulsifier: 0.5 part by weight of alkylaryl polyglycol ether
To prepare an appropriate active ingredient formulation, 1 part by weight of active ingredient is mixed with the stated amounts of solvent and emulsifier, and the concentrate is diluted with emulsifier-containing water to the desired concentration. Leaf discs from maize (Zea mays) are sprayed with an active ingredient formulation of the desired concentration and, after drying, populated with caterpillars of the armyworm (Spodoptera frugiperda).
After 7 days, the efficacy in % is determined. 100% means that all caterpillars were killed; 0% means that no caterpillars were killed.

[2] = logP by HPLC on reverse-phase column (EEC Directive 79/831 Annex V.A8); assay type: physicochemical
Procedure: The logP values reported in the above Tables and Preparation Examples were determined according to EEC Directive 79/831 Annex V.A8 by HPLC (High Performance Liquid Chromatography) on a reverse-phase column (C18). Temperature 43° C.

[3] = HPLC-MS, HPLC on reverse-phase column

Row | SMILES | efficacy in % ([1]; application rate 500 g/ha) | logP ([2]; HPLC-MS) | efficacy in % ([1]; application rate 100 g/ha) | logP ([2]; HPLC, C18 reverse phase, 43° C., acidic range pH 2.7, calibration with alkan-2-ones) | logP [2, 3]
1 | CC(NC(=O)c1ccc(/C=C/C(=O)NC(c2cccc([N+](=O)[O-])c2)C(F)(F)F)cc1C(F)(F)F)C(F)(F)F (centres unmarked) [Ia-28] | 83% | HPLC-MS: logP = 3.83; mass | – | – | –
2 | C#CC(C)NC(=O)c1ccc(/C=C/C(=O)NC(c2cccc(C(F)(F)F)c2)C(F)(F)F)cc1Br (centres unmarked) [Ia-178] | – | HPLC-MS: logP = 3.44; mass | 100% | – | –
3 | O=C(/C=C/c1ccc(C(=O)Nc2ccc([N+](=O)[O-])cn2)c(Cl)c1)NC(c1cccc(C(F)(F)F)c1)C(F)(F)F (racemic) [Ia-204] | – | HPLC-MS: logP = 3.95; mass | 100% | – | –
4 | C=CCn1c(C(=O)NC(c2cccc(C(F)(F)F)c2)C(F)(F)F)cc2cc(C(=O)NC3CC3)c(Cl)cc21 (racemic) [Ic-29] | – | – | 100% | HPLC-MS: logP = 3.86; mass | –
5 | O=C(/C=C/c1ccc(C(=O)Nc2ccc(F)cn2)c(C(F)(F)F)c1)NC(c1cccc(C(F)(F)F)c1)C(F)(F)F (racemic) [Ia-210] | – | HPLC-MS: logP = 3.93; mass | 100% | – | –
6 | O=C(/C=C/c1ccc(C(=O)NCc2ccccn2)cc1)NC(c1cccc(C(F)(F)F)c1)C(F)(F)F (centres unmarked) [Ia-7] | 83% | HPLC-MS: logP = 2.45; mass | – | – | –
7 | O=C(/C=C/c1ccc(CNC(=O)C2CCC2)c(C(F)(F)F)c1)NC(c1cccc(C(F)(F)F)c1)C(F)(F)F (centres unmarked) [Ia-267] | – | – | 100% | – | HPLC-MS: logP = 3.9; mass
8 | N#Cc1cc(/C=C/C(=O)NC(c2cc(Cl)ccc2Cl)C(F)(F)F)ccc1-n1cncn1 (centres unmarked) [Ia-15] | 83% | HPLC-MS: logP = 3.19; mass | – | – | –
9 | Cc1ccnc(NC(=O)c2ccc(/C=C/C(=O)NC(c3cccc(C(F)(F)F)c3)C(F)(F)F)cc2C(F)(F)F)c1 (centres unmarked) [Ia-259] | – | HPLC-MS: logP = 3.61; mass | 100% | – | –
10 | O=C(/C=C/c1ccc(-n2cnc(Cl)n2)c(C(F)(F)F)c1)NC(c1cccc(C(F)(F)F)c1)C(F)(F)F (racemic) [Ia-208] | – | HPLC-MS: logP = 4.02; mass | 100% | – | –
11 | CCC(=O)NC(C)c1ccc(/C=C/C(=O)NC(c2ccc(F)c(Cl)c2)C(F)(F)F)cc1F (centres unmarked) [Ia-274] | – | – | 100% | – | HPLC-MS: logP = 3.23; mass
12 | N#Cc1ccc(NC(=O)c2ccc(/C=C/C(=O)NC(c3cccc(C(F)(F)F)c3)C(F)(F)F)cc2Cl)nc1 (racemic) [Ia-205] | – | HPLC-MS: logP = 3.72; mass | 100% | – | –
13 | CC(=O)NCc1ccc(/C=C/C(=O)NC(c2cccc(C(F)(F)F)c2)C(F)(F)F)cc1C(F)(F)F (centres unmarked) [Ia-247] | – | HPLC-MS: logP = 3.24; mass | 100% | – | –
14 | CC(NC(=O)CC1CC1)c1ccc(/C=C/C(=O)NC(c2cccc(C(F)(F)F)c2)C(F)(F)F)nc1 (centres unmarked) [If-3] | – | – | 100% | – | –
15 | CCN(C(=O)c1ccc(/C=C/C(=O)NC(c2cccc(C(F)(F)F)c2)C(F)(F)F)cc1C(F)(F)F)C1CC1 (centres unmarked) [Ia-257] | – | HPLC-MS: logP = 3.89; mass | 100% | – | –
16 | CC(C#N)(NC(=O)c1ccc(/C=C/C(=O)NC(c2cccc(C(F)(F)F)c2)C(F)(F)F)cc1C(F)(F)F)C1CC1 (centres unmarked) [Ia-172] | – | HPLC-MS: logP = 3.74; mass | 100% | – | –
17 | CCC(=O)NC(C)c1ccc(/C=C/C(=O)NC(c2ccc(F)c(C(F)(F)F)c2)C(F)(F)F)cc1F (centres unmarked) [Ia-275] | – | – | 100% | – | HPLC-MS: logP = 3.38; mass
18 | N#Cc1ccnc(NC(=O)c2ccc(/C=C/C(=O)NC(c3cccc(C(F)(F)F)c3)C(F)(F)F)cc2C(F)(F)F)c1 (centres unmarked) [Ia-260] | – | – | 100% | – | HPLC-MS: logP = 3.61; mass
19 | N#Cc1cnn(-c2ccc(/C=C/C(=O)NC(c3cccc(C(F)(F)F)c3)C(F)(F)F)cc2Cl)c1 (racemic) [Ia-200] | – | HPLC-MS: logP = 3.83; mass | 100% | – | –
20 | O=C(/C=C/c1ccc(C(=O)NC2CC2)c(Cl)c1)NC(c1cccc(Cl)c1)C(F)(F)F (centres unmarked) [Ia-235] | 83% | HPLC-MS: logP = 3.03; mass | – | – | –
21 | O=C(/C=C/c1ccc(CNS(=O)(=O)C2CC2)c(C(F)(F)F)c1)NC(c1cccc(C(F)(F)F)c1)C(F)(F)F (centres unmarked) [Ia-271] | – | – | 100% | – | HPLC-MS: logP = 3.74; mass
22 | O=C(/C=C/c1ccc(-n2cncn2)c(Cl)c1)NC(c1ccc(F)c(Cl)c1)C(F)(F)F (racemic) [Ia-209] | – | HPLC-MS: logP = 3.15; mass | 83% | – | –
23 | O=C(/C=C/c1ccc(C(=O)Nc2ccc(F)cn2)c(Cl)c1)NC(c1cccc(C(F)(F)F)c1)C(F)(F)F (racemic) [Ia-203] | – | HPLC-MS: logP = 3.84; mass | 100% | – | –
24 | O=C(/C=C/c1ccc(C(=O)Nc2ncccn2)c(C(F)(F)F)c1)NC(c1cccc(C(F)(F)F)c1)C(F)(F)F (centres unmarked) [Ia-119] | – | HPLC-MS: logP = 3.11; mass | 100% | – | –
